According to patent publication US10849878B2 (OBSHCHESTVO S OGRANICHENNOY OTVETSTVENNOSTYU “NORMOFARM”, priority 2015, dated 2020):

Tested on: white Wistar rats
Experiment: transport stress simulation test (shaker, 240 min)
Type: in vivo, rat
Set-up: AST in blood serum / ALT in blood serum / Creatinine in blood serum: unit not given here
Method: The anti-stress, anxiolytic and antidepressant effects of the claimed agent and compositions on its basis were determined as follows. […] The suspension test. Five animals from each group were used. Each animal was suspended for 24 hours. After that the sample of whole blood was taken from the sublingual vessels of that animal Then the animal was placed in a desiccator with diethyl ether. 60 minutes later a spinal decapitation of the animal was performed. The abdominal opening was performed and the number of ulcers on the inner surface of the stomach was counted. The obtained whole blood was placed in two test tubes. The whole blood was used to determine the number of eosinophils by the Duncker method. Serum was used to determine the biochemical composition of the blood. Adrenaline and norepinephrine were determined as biochemical indices. These characteristics are specific markers identifying the impact of stress factors of various etiologies. • 2. The transport stress simulation test. Five animals from each group were used. The animals were placed in cages fixed on a laboratory shutter. The duration of the test was 240 minutes. At the end of the test the animals were examined by the techniques described in paragraph 1. A sample of whole blood was taken to determine the number of eosinophils by the Duncker method. The blood serum was studied to measure the amount of enzymes: alanine aminotransferase (ALT), aspartate aminotransferase (AST), creatinine
The tests were carried out on 2-month-old rats of the Wistar line. The groups were selected according to the principle of paired counterparts.
During the course of the study the animals were selected from the formed groups of 10 animals each to participate in stress tests, 5 animals per test. The selection was made on the 7th, 14th, 21st day of the drug administration (experiments were performed on the same days right after selection). The animals were weighed weekly immediately before testing. The obtained data were processed by statistical methods of mathematical statistics. […] Water for injection produced by the “Bufus Novosibkhimpharm” was used as a solvent. The introduced volume was 1.5 ml. The solution was introduced at the same tine 2 hours after morning feeding. The first group was given water for injection by the same way. The volume of administration was 1.5 ml.
The rotating universal Shaker Unimax 10 was used as a model for simulating transport stress. The rotation speed was chosen at 120 rpm for 240 min A cage with five animals was fixed on the site. The rats stayed in the cage in a free state. A change in the reaction of animals with prolonged administration of the drug was observed. The sampling and decapitation process is described in Example 1.
Physiological, morphological and biochemical blood parametres were determined as markers of the impact of stress on animals, such as: individual and group behavior of animals, the number of enuresis acts, the number of defecation acts, and the number of excrement boluses; eosinophils in whole blood according to Duncker and the levels of ALT, AST enzymes and creatinine in the blood serum were measured.
Transport stress is a striking example of technological effect on animal and human body. […] Thus, it suits best as an indicator for the observation of the classical example of the development of the adaptive syndrome by Selye. In the experiment, a simulation of the transport impact on the rats was performed with the help of the laboratory shutter. Progressive 4 hour-long circular vibrations adversely affected the animals. The rats in the control group were constantly moving, colliding with each other trying to concentrate in the corners, where the amplitude of the oscillation was the highest. At the same time the number of defecation acts was higher. The animals behaved aggressively. The stronger ones tried to push out a weaker animal out of the corner.

[1] = 30 mg/kg solution by gastric tube, administration day 7
[2] = 30 mg/kg solution by gastric tube, administration day 14
[3] = 30 mg/kg solution by gastric tube, administration day 21
[4] = 60 mg/kg in the form of pills with cocoa, administration day 7
[5] = 60 mg/kg in the form of pills with cocoa, administration day 14
[6] = 60 mg/kg in the form of pills with cocoa, administration day 21
[7] = 60 mg/kg solution by gastric tube, administration day 7
[8] = 60 mg/kg solution by gastric tube, administration day 14
[9] = 60 mg/kg solution by gastric tube, administration day 21
[10] = 120 mg/kg solution by gastric tube, administration day 7
[11] = 120 mg/kg solution by gastric tube, administration day 14
[12] = 120 mg/kg solution by gastric tube, administration day 21

SMILES: O=C1O[C@H]([C@@H](O)CO)C([O-])=C1O.[Li+] [lithium ascorbate]
- ALT in blood serum [1]: 29.8 ± 8.45
- AST in blood serum [1]: 91.7 ± 7.29
- Creatinine in blood serum [1]: 36.5 ± 3.84
- Eosinophil count in whole blood [1]: 794 ± 6.9
- Number of boluses in defecation [1]: 4.2 ± 0.4
- ALT in blood serum [2]: 32.1 ± 9.10
- AST in blood serum [2]: 109.9 ± 9.67
- Creatinine in blood serum [2]: 48.1 ± 3.82
- Eosinophil count in whole blood [2]: 921 ± 9.1
- Number of boluses in defecation [2]: 3.9 ± 0.4
- ALT in blood serum [3]: 31.7 ± 3.14
- AST in blood serum [3]: 121.2 ± 7.21
- Creatinine in blood serum [3]: 46.3 ± 3.26
- Eosinophil count in whole blood [3]: 928 ± 10.7
- Number of boluses in defecation [3]: 3.5 ± 0.3
- ALT in blood serum [4]: 22.7 ± 8.19
- AST in blood serum [4]: 68.8 ± 4.72
- Creatinine in blood serum [4]: 25.7 ± 4.30
- Eosinophil count in whole blood [4]: 528 ± 5.8
- Number of boluses in defecation [4]: 7.2 ± 1.5
- ALT in blood serum [5]: 34.8 ± 6.83
- AST in blood serum [5]: 119.7 ± 6.21
- Creatinine in blood serum [5]: 56.7 ± 6.44
- Eosinophil count in whole blood [5]: 938 ± 11.7
- Number of boluses in defecation [5]: 5.2 ± 0.9
- ALT in blood serum [6]: 35.0 ± 4.29
- AST in blood serum [6]: 121. ± 4.29
- Creatinine in blood serum [6]: 58.4 ± 9.30
- Eosinophil count in whole blood [6]: 947 ± 12.4
- Number of boluses in defecation [6]: 3.7 ± 0.3
- ALT in blood serum [7]: 31.0 ± 3.15
- AST in blood serum [7]: 97.9 ± 5.04
- Creatinine in blood serum [7]: 39.6 ± 7.98
- Eosinophil count in whole blood [7]: 822 ± 8.7
- Number of boluses in defecation [7]: 4.6 ± 0.4
- ALT in blood serum [8]: 33.1 ± 2.84
- AST in blood serum [8]: 112.4 ± 6.23
- Creatinine in blood serum [8]: 48.3 ± 8.27
- Eosinophil count in whole blood [8]: 919 ± 4.1
- Number of boluses in defecation [8]: 3.9 ± 0.4
- ALT in blood serum [9]: 32.4 ± 6.37
- AST in blood serum [9]: 115.5 ± 8.97
- Creatinine in blood serum [9]: 45.6 ± 2.73
- Eosinophil count in whole blood [9]: 922 ± 9.3
- Number of boluses in defecation [9]: 3.7 ± 0.7
- ALT in blood serum [10]: 32.4 ± 7.75
- AST in blood serum [10]: 107.1 ± 6.20
- Creatinine in blood serum [10]: 39.8 ± 6.13
- Eosinophil count in whole blood [10]: 856 ± 4.2
- Number of boluses in defecation [10]: 5.0 ± 1.1
- ALT in blood serum [11]: 31.7 ± 7.32
- AST in blood serum [11]: 110.3 ± 7.41
- Creatinine in blood serum [11]: 47.8 ± 1.46
- Eosinophil count in whole blood [11]: 901 ± 16.8
- Number of boluses in defecation [11]: 4.1 ± 1.1
- ALT in blood serum [12]: 30.1 ± 7.42
- AST in blood serum [12]: 118.7 ± 4.48
- Creatinine in blood serum [12]: 42.1 ± 2.97
- Eosinophil count in whole blood [12]: 907 ± 4.3
- Number of boluses in defecation [12]: 4.0 ± 1.0
